# pKd: −log10 of the molar value.
# Biological target: human TYK2 (JH2domain-pseudokinase) (Homo sapiens (Human), UniProt P29597)
# Experiment: TYK2 JH2 Domain Binding Assay (KINOMEscan)
# Procedure: Binding constants for compounds of the present invention against the JH2 domain were determined by the following protocol for a KINOMEscan® assay (DiscoveRx). A fusion protein of a partial length construct of human TYK2 (JH2domain-pseudokinase) (amino acids G556 to D888 based on reference sequence NP_003322.3) and the DNA binding domain of NFkB was expressed in transiently transfected HEK293 cells. From these HEK 293 cells, extracts were prepared in M-PER extraction buffer (Pierce) in the presence of Protease Inhibitor Cocktail Complete (Roche) and Phosphatase Inhibitor Cocktail Set II (Merck) per manufacturers' instructions. The TYK2 (JH2domain-pseudokinase) fusion protein was labeled with a chimeric double-stranded DNA tag containing the NFkB binding site (5′-[…]-3′) fused to an amplicon for qPCR readout, which was added directly to the expression extract (the final concentration of DNA-tag in the binding reaction is 0.1 nM).
# The liganded beads were blocked with excess biotin and washed with blocking buffer (SeaBlock (Pierce), 1% BSA, 0.05% Tween 20, 1 mM DTT) to remove unbound ligand and to reduce nonspecific binding.
# Extracts were used directly in binding assays without any enzyme purification steps at a ≥10,000-fold overall stock dilution (final DNA-tagged enzyme concentration <0.1 nM). Extracts were loaded with DNA-tag and diluted into the binding reaction in a two step process. First extracts were diluted 1:100 in 1× binding buffer (PBS/0.05% Tween 20/10 mM DTT/0.1% BSA/2 μg/ml sonicated salmon sperm DNA) containing 10 nM DNA-tag. This dilution was allowed to equilibrate at room temperature for 15 minutes and then subsequently diluted 1:100 in 1× binding buffer. […] Kds were determined using an 11-point 3-fold compound dilution series with three DMSO control points. […] The compounds were then diluted directly into the assays such that the final concentration of DMSO was 0.9%. All reactions performed in polypropylene 384-well plates. Each was a final volume of 0.02 mL. Assays were incubated with shaking for 1 hour at room temperature. Then the beads were pelleted and washed with wash buffer (1×PBS, 0.05% Tween 20) to remove displaced kinase and test compound. […] The qPCR protocol consisted of a 10 minute hot start at 95° C., followed by 35 cycles of 95° C. for 15 seconds, 60° C. for 1 minute.
# Kds were determined using an 11-point 3-fold compound dilution series with three DMSO control points. […] The compounds were then diluted directly into the assays such that the final concentration of DMSO was 0.9%. The Kds were determined using a compound top concentration of 30,000 nM. Kd measurements were performed in duplicate.
# Binding constants (Kds) were calculated with a standard dose-response curve using the Hill equation: […]
# The Hill Slope was set to −1.
# human TYK2 (JH2domain-pseudokinase), sequence (P29597 556-888): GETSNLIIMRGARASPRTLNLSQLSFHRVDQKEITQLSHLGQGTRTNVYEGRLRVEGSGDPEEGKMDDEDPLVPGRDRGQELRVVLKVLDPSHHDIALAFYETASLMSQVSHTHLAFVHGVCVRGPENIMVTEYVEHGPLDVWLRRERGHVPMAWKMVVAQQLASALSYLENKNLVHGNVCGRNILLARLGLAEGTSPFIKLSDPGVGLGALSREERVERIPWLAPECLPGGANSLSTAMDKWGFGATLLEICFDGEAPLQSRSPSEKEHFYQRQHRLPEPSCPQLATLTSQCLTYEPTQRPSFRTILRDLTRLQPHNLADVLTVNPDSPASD
row,SMILES,pKd
1,CNc1cc(Nc2cccn(C3CC(F)(F)C3)c2=O)nc2c(C(=O)N[C@@H]3CC[C@@H](OC)C3)cnn12 [I-1210],9.00 to 9.70
2,CNc1cc(Nc2cccn(C3CC(F)(F)C3)c2=O)nc2c(C(=O)N[C@@H]3CC[C@@H](O)C3)cnn12 [I-1211],> 9.70
3,CNc1cc(Nc2cccn(C3CC(F)(F)C3)c2=O)nc2c(C(=O)N[C@@H]3CC[C@H](O)C3)cnn12 [I-1212],< 8.00
4,CNc1cc(Nc2cccn([C@H]3CCCN(CCF)C3)c2=O)nc2c(C(=O)N[C@H]3CC[C@@H]3OC)cnn12 [I-1215],> 9.70
5,CNc1cc(Nc2cccn([C@H]3CCCN(CCF)C3)c2=O)nc2c(C(=O)N[C@@H]3CC[C@H]3OC)cnn12 [I-1216],9.00 to 9.70
6,CNc1cc(Nc2cccn(-c3cccnc3)c2=O)nc2c(C(=O)N[C@H]3CCC[C@H](OC)C3)cnn12 [I-1217],> 9.70
7,CNc1cc(Nc2cccn(-c3cccnc3)c2=O)nc2c(C(=O)N[C@@H]3CCC[C@@H](OC)C3)cnn12 [I-1218],8.00 to 9.00
8,CNc1cc(Nc2cccn([C@@H]3CCC[C@H](C#N)C3)c2=O)nc2c(C(=O)N[C@@H]3C[C@@H]3F)cnn12 [I-1219],> 9.70
9,CNc1cc(Nc2cccn([C@H]3CCC[C@@H](C#N)C3)c2=O)nc2c(C(=O)N[C@@H]3C[C@@H]3F)cnn12 [I-1220],9.00 to 9.70
10,CNc1cc(-c2cn(C3CCOCC3)c3ncccc23)nc2c(C(=O)N[C@@H]3CCC[C@@]3(C)O)cnn12 [I-1221],9.00 to 9.70
11,CNc1cc(-c2cn(C3CCOCC3)c3ncccc23)nc2c(C(=O)N[C@H]3CCC[C@]3(C)O)cnn12 [I-1222],> 9.70
12,"CNc1cc(-c2cn([C@H]3CCC[C@@H]3OC)c3ncccc23)nc2c(C(=O)N[C@H]3CC[C@H]3O)cnn12 [I-1223, N-((1S,2R)-2-hydroxycyclobutyl)-5-(1-((1S,2S)-2-methoxycyclopentyl)-1H-pyrrolo[2,3-b]pyridin-3-yl)-7-(methylamino)pyrazolo[1,5-a]pyrimidine-3-carboxamide]",9.00 to 9.70
13,"CNc1cc(-c2cn([C@H]3CCC[C@@H]3OC)c3ncccc23)nc2c(C(=O)N[C@@H]3CC[C@@H]3O)cnn12 [I-1224, N-((1R,2S)-2-hydroxycyclobutyl)-5-(1-((1S,2S)-2-methoxycyclopentyl)-1H-pyrrolo[2,3-b]pyridin-3-yl)-7-(methylamino)pyrazolo[1,5-a]pyrimidine-3-carboxamide]",8.00 to 9.00
14,CNc1cc(Nc2cccn(C3CCOCC3)c2=O)nc2c(C(=O)N[C@H]3CCC[C@H](O)C3)cnn12 [I-1225],> 9.70
15,CNc1cc(Nc2cccn(C3CCOCC3)c2=O)nc2c(C(=O)N[C@@H]3CCC[C@@H](O)C3)cnn12 [I-1226],8.00 to 9.00
16,CNc1cc(Nc2cccn([C@@H]3C[C@H]3OC)c2=O)nc2c(C(=O)NC3CC3)cnn12 [I-1227],> 9.70
17,CNc1cc(Nc2cccn([C@H]3C[C@@H]3OC)c2=O)nc2c(C(=O)NC3CC3)cnn12 [I-1228],8.00 to 9.00
18,CNc1cc(-c2cn(CCCO)c3ncc(F)cc23)nc2c(C(=O)N[C@@H]3CC[C@H]3OC)cnn12 [I-1229],> 9.70
19,CNc1cc(-c2cn(CCCO)c3ncc(F)cc23)nc2c(C(=O)N[C@H]3CC[C@@H]3OC)cnn12 [I-1230],9.00 to 9.70
20,CCO[C@H]1CC[C@@H]1NC(=O)c1cnn2c(NC)cc(Nc3cccn(-c4ccccn4)c3=O)nc12 [I-1231],> 9.70
21,CCO[C@@H]1CC[C@H]1NC(=O)c1cnn2c(NC)cc(Nc3cccn(-c4ccccn4)c3=O)nc12 [I-1232],9.00 to 9.70
22,CNc1cc(Nc2cccn([C@@H]3C[C@H]3OC)c2=O)nc2c(C(=O)N[C@H]3CC[C@@H]3OC)cnn12 [I-1233],8.00 to 9.00
23,CNc1cc(Nc2cccn([C@H]3C[C@@H]3OC)c2=O)nc2c(C(=O)N[C@H]3CC[C@@H]3OC)cnn12 [I-1234],9.00 to 9.70
24,CNc1cc(Nc2cccn(C(C)C)c2=O)nc2c(C(=O)N[C@@H]3CCC[C@@](C)(OC)C3)cnn12 [I-1235],> 9.70
25,CNc1cc(Nc2cccn([C@@H]3CCCOC3)c2=O)nc2c(C(=O)N[C@@H]3CCC[C@@](C)(OC)C3)cnn12 [I-1236],> 9.70
26,CNc1cc(Nc2cccn([C@H]3CCCOC3)c2=O)nc2c(C(=O)N[C@@H]3CCC[C@@](C)(OC)C3)cnn12 [I-1237],< 8.00
27,CNc1cc(Nc2cccn3ccnc23)nc2c(C(=O)N[C@@H]3CCC[C@@]3(C)O)cnn12 [I-1238],> 9.70

row,SMILES,pKd
1,CNc1cc(Nc2cccn3ccnc23)nc2c(C(=O)N[C@H]3CCC[C@]3(C)O)cnn12 [I-1239],> 9.70
2,CNc1cc(Nc2cccn(C(C)C)c2=O)nc2c(C(=O)N[C@@H]3CCC[C@@]3(C)O)cnn12 [I-1240],> 9.70
3,CNc1cc(Nc2cccn(C(C)C)c2=O)nc2c(C(=O)N[C@H]3CCC[C@]3(C)O)cnn12 [I-1241],> 9.70
4,CNc1cc(Nc2cccn(C(C)C)c2=O)nc2c(C(=O)N[C@H]3CCC[C@](C)(O)C3)cnn12 [I-1242],> 9.70
5,CNc1cc(Nc2cccn(C(C)C)c2=O)nc2c(C(=O)N[C@@H]3CCC[C@@](C)(O)C3)cnn12 [I-1243],8.00 to 9.00
6,CNc1cc(Nc2cccn([C@@H]3CCC[C@H](C#N)C3)c2=O)nc2c(C(=O)NC3CC3)cnn12 [I-1244],> 9.70
7,CNc1cc(Nc2cccn([C@H]3CCC[C@@H](C#N)C3)c2=O)nc2c(C(=O)NC3CC3)cnn12 [I-1245],9.00 to 9.70
8,"CNc1cc(-c2cn([C@@H]3CCC[C@H]3OC)c3ncccc23)nc2c(C(=O)N[C@H]3CC[C@H]3O)cnn12 [I-1246, N-((1S,2R)-2-hydroxycyclobutyl)-5-(1-((1R,2R)-2-methoxycyclopentyl)-1H-pyrrolo[2,3-b]pyridin-3-yl)-7-(methylamino)pyrazolo[1,5-a]pyrimidine-3-carboxamide]",9.00 to 9.70
9,"CNc1cc(-c2cn([C@@H]3CCC[C@H]3OC)c3ncccc23)nc2c(C(=O)N[C@@H]3CC[C@@H]3O)cnn12 [I-1247, N-((1R,2S)-2-hydroxycyclobutyl)-5-(1-((1R,2R)-2-methoxycyclopentyl)-1H-pyrrolo[2,3-b]pyridin-3-yl)-7-(methylamino)pyrazolo[1,5-a]pyrimidine-3-carboxamide]",> 9.70
10,CNc1cc(Nc2cccn([C@H]3CCCOC3)c2=O)nc2c(C(=O)N[C@@H]3C[C@H]3OC)cnn12 [I-1248],> 9.70
11,CNc1cc(Nc2cccn([C@H]3CCCOC3)c2=O)nc2c(C(=O)N[C@H]3C[C@@H]3OC)cnn12 [I-1249],> 9.70
12,"CNc1cc(-c2cn([C@@H]3CCCOC3)c3ncccc23)nc2c(C(=O)N[C@H]3COC[C@H]3O)cnn12 [I-1250, N-(4-hydroxytetrahydrofuran-3-yl)-7-(methylamino)-5-(1-((R)-tetrahydro-2H-pyran-3-yl)-1H-pyrrol[2,3-b]pyridin-3-yl)pyrazol[1,5-a]pyrimidine-3-carboxamide]",9.00 to 9.70
13,CNc1cc(Nc2cccn([C@H]3CC[C@@H]3O)c2=O)nc2c(C(=O)N[C@@H]3CCC[C@@H](OC)C3)cnn12 [I-1252],> 9.70
14,CNc1cc(Nc2cccn([C@@H]3CC[C@H]3O)c2=O)nc2c(C(=O)N[C@@H]3CCC[C@@H](OC)C3)cnn12 [I-1253],< 8.00
15,CNc1cc(-c2cn([C@@H]3CCCOC3)c3ncccc23)nc2c(C(N)=O)cnn12 [I-1255],9.00 to 9.70
16,CNc1cc(-c2cn([C@H]3CCCOC3)c3ncccc23)nc2c(C(N)=O)cnn12 [I-1256],> 9.70
17,CNc1cc(-c2cn([C@H]3CCCOC3)c3ncccc23)nc2c(C(=O)N[C@H]3CC[C@H]3O)cnn12 [I-1258],< 8.00
18,CNc1cc(Nc2cccn(-c3ocnc3C)c2=O)nc2c(C(=O)N[C@H]3CC[C@H]3O)cnn12 [I-1259],< 8.00
19,CNc1cc(Nc2cccn(-c3nc(C)co3)c2=O)nc2c(C(=O)NC(C)(C)C#N)cnn12 [I-1260],9.00 to 9.70
20,CNc1cc(Nc2cccn3ccnc23)nc2c(C(=O)N[C@@H]3COC[C@@H]3O)cnn12 [I-1261],9.00 to 9.70
21,CNc1cc(Nc2cccn3ccnc23)nc2c(C(=O)N[C@H]3COC[C@H]3O)cnn12 [I-1262],8.00 to 9.00
22,CNc1cc(Nc2cccn(C3CCOCC3)c2=O)nc2c(C(=O)N[C@H]3CC[C@@H](O)C3)cnn12 [I-1263],> 9.70
23,CNc1cc(Nc2cccn(C3CCOCC3)c2=O)nc2c(C(=O)N[C@@H]3CC[C@H](O)C3)cnn12 [I-1264],8.00 to 9.00
24,CNc1cc(Nc2cccn(C(C)C)c2=O)nc2c(C(=O)N[C@H]3CC[C@@H](O)C3)cnn12 [I-1265],8.00 to 9.00
25,CNc1cc(Nc2cccn(C(C)C)c2=O)nc2c(C(=O)N[C@@H]3CC[C@H](O)C3)cnn12 [I-1266],> 9.70
26,CNc1cc(-c2cn([C@@H]3CCCOC3)c3ncccc23)nc2c(C(=O)N[C@@H]3CC[C@H]3OC)cnn12 [I-1267],> 9.70

# Source: patent US10508120B2, “TYK2 inhibitors and uses thereof” (Nimbus Lakshmi, Inc., priority 2017, dated 2019)
